In this assay the target is T1, human C5aR(CD88) (Homo sapiens, UniProt P21730).
T1 construct: expressed in transfected cells; host or cells: rat basophilic leukemia cells (RBL)
T1 sequence (P21730 1-350): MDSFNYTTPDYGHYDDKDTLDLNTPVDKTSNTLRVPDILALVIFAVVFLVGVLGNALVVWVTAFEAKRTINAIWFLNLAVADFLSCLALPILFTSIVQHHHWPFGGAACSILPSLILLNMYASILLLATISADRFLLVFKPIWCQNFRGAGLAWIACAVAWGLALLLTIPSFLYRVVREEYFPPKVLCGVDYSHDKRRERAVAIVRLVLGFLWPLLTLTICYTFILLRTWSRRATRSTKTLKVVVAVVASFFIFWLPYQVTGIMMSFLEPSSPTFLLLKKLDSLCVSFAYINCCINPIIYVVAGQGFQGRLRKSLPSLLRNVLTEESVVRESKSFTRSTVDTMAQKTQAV
Put plainly: Determination of the IC50 value in an enzyme release assay (functional assay, antagonistic activity). Format: cell-based. Conditions: for IC50: antagonistic activity, IC50 group in enzyme release assay, RBL cells expressing human C5aR(CD88), read-out: activity (group).

Starred links: 1 amine or outer side, 2 acyl side, 3 side chain; linkers in the order of their positions; H or OH if unused. Positions of bridges follow the written chain, without caps; N, C: chain ends. Non-standard residues stand in square brackets, D forms with d. Residues, ends and D or L forms follow the SMILES beside them. *: point of attachment. Ala(piperidin-4-yl) = O=C([C@H](CC1CCN([*:3])CC1)N[*:1])[*:2]; Ala(1-amidino-4-piperidyl) = N=C(N)N1CCC(C[C@H](N)C(=O)O)CC1; Phe(4-guanidino) = N=C(N)Nc1ccc(C[C@H](N)C(=O)O)cc1; X9 = COc1ccc(Cn2cnc(C[C@H](N[*:1])C(=O)[*:2])c2)cc1; Phe(4-amidino) = N=C(N)c1ccc(C[C@H](N)C(=O)O)cc1; X6 = O=C([C@H](C[S+]([O-])Cc1cccnc1)N[*:1])[*:2]; Phe(3,4-Cl2) = N[C@@H](Cc1ccc(Cl)c(Cl)c1)C(=O)O; Phe(3-Cl) = N[C@@H](Cc1cccc(Cl)c1)C(=O)O; Phe(2-Cl) = N[C@@H](Cc1ccccc1Cl)C(=O)O; Phe(4-F) = N[C@@H](Cc1ccc(F)cc1)C(=O)O; Bta = N[C@@H](Cc1csc2ccccc12)C(=O)O; Hyp = O=C(O)[C@@H]1C[C@@H](O)CN1; PhLac = O=C(O)[C@@H](O)Cc1ccccc1; d(hLeu) = CC(C)CC[C@@H](N)C(=O)O; hCit = NC(=O)NCCCC[C@H](N)C(=O)O; 4Pal = N[C@@H](Cc1ccncc1)C(=O)O; Cha = N[C@@H](CC1CCCCC1)C(=O)O; Cit = NC(=O)NCCC[C@H](N)C(=O)O; dCha = N[C@H](CC1CCCCC1)C(=O)O; NMeA = CN[C@@H](C)C(=O)O; Nle = CCCC[C@H](N)C(=O)O; Orn = NCCC[C@H](N)C(=O)O; Dab = NCC[C@H](N)C(=O)O; X17 = c1cc(CC*)ccn1; X16 = c1ccc(C*)nc1; X18 = c1cc(C*)ccn1; X22 = c1cncc(C*)c1

Take `CCCC[C@@H]1NC(=O)[C@H](Cc2ccc(Cl)c(Cl)c2)NC(=O)[C@@H](CCC(C)C)NC(=O)[C@H](CO)NC(=O)[C@@H](NC(=O)[C@@H](N)Cc2ccccc2)CCCNC1=O` [Compound 384, H-Phe-[Orn-Ser-hle-Eaa-Nle]] (H-F[Orn]S[d(hLeu)][Phe(3,4-Cl2)][Nle]; lactam 2-C): the IC50 was in the range of 0.05 to 0.2 µM.
Consider `CC(C)CC[C@H]1NC(=O)[C@H](CO)NC(=O)[C@@H](NC(=O)[C@@H](N)Cc2ccccc2)CCCNC(=O)[C@H](CC(C)C)NC(=O)[C@H](Cc2cccc(Cl)c2)NC1=O` [Compound 385, H-Phe-[Orn-Ser-hle-Mcf-Leu]] (H-F[Orn]S[d(hLeu)][Phe(3-Cl)]L; lactam 2-C), for which the IC50 was in the range of 0.05 to 0.2 µM.
In the case of `CCCC[C@@H]1NC(=O)[C@H](Cc2ccccc2Cl)NC(=O)[C@@H](CCC(C)C)NC(=O)[C@H](CO)NC(=O)[C@@H](NC(=O)[C@@H](N)Cc2ccccc2)CCCNC1=O` [Compound 386, H-Phe-[Orn-Ser-hle-Ocf-Nle]] (H-F[Orn]S[d(hLeu)][Phe(2-Cl)][Nle]; lactam 2-C), the IC50 lay in the range of 0.05 to 0.2 µM.
On the same count and under the same terms, for `CC(C)CC[C@H]1NC(=O)[C@H](CO)NC(=O)[C@@H](NC(=O)[C@@H](N)Cc2ccccc2)CCCNC(=O)[C@H](CC(C)C)NC(=O)[C@H](Cc2ccc(F)cc2)NC1=O` [Compound 387, H-Phe-[Orn-Ser-hle-Pff-Leu]] (H-F[Orn]S[d(hLeu)][Phe(4-F)]L; lactam 2-C) the value was 0.05 to 0.2 µM; for `CCCC[C@@H]1NC(=O)[C@H](Cc2ccc(F)cc2)NC(=O)[C@@H](CCC(C)C)NC(=O)[C@H](CO)NC(=O)[C@@H](NC(=O)[C@@H](N)Cc2ccccc2)CCCNC1=O` [Compound 388, H-Phe-[Orn-Ser-hle-Pff-Nle]] (H-F[Orn]S[d(hLeu)][Phe(4-F)][Nle]; lactam 2-C), 0.02 to 0.05 µM.
Still for that read-out and setting: for `CC(C)CC[C@H]1NC(=O)[C@H](CO)NC(=O)[C@@H](NC(=O)[C@@H](N)Cc2ccccc2)CCCNC(=O)[C@H](Cc2ccccc2)NC(=O)[C@H](Cc2ccc(F)cc2)NC1=O` [Compound 389, H-Phe-[Orn-Ser-hle-Pff-Phe]] (H-F[Orn]S[d(hLeu)][Phe(4-F)]F; lactam 2-C) the value was 0.05 to 0.2 µM; for `CCCC[C@@H]1NC(=O)[C@H](Cc2c[nH]c3ccccc23)NC(=O)[C@@H](CCC(C)C)NC(=O)[C@H](CO)NC(=O)[C@@H](NC(=O)[C@@H](N)Cc2ccccc2)CCCNC1=O` [Compound 390, H-Phe-[Orn-Ser-hle-Trp-Nle]] (H-F[Orn]S[d(hLeu)]W[Nle]; lactam 2-C), 0.02 to 0.05 µM; for `CC(C)CC[C@@H](NC(=O)[C@@H]1CCCN1C(=O)[C@H](CCCNC(N)=O)NC(=O)[C@@H](N)Cc1ccccc1)C(=O)N[C@@H](Cc1csc2ccccc12)C(=O)N[C@@H](Cc1ccccc1)C(N)=O` [Compound 391, H-Phe-Cit-Pro-hle-Bta-Phe-NH2] (H-F[Cit]P[d(hLeu)][Bta]F-NH2), 0.05 to 0.2 µM.
`CCCC[C@@H]1NC(=O)[C@H](Cc2c[nH]c3ccccc23)NC(=O)[C@@H](CCC(C)C)NC(=O)[C@@H]2C[C@@H](O)CN2C(=O)[C@@H](NC(=O)[C@@H](O)Cc2ccccc2)CCCNC1=O` [Compound 392, Ohf-[Orn-Hyp-hle-Trp-Nle]] (H-[PhLac][Orn][Hyp][d(hLeu)]W[Nle]; lactam 2-C): the IC50 was 0.05 to 0.2 µM.
In the case of `CC(=O)N[C@@H](Cc1ccccc1)C(=O)N[C@H]1CCCNC(=O)[C@H](CCCCNC(=N)N)NC(=O)[C@H](Cc2c[nH]c3ccccc23)NC(=O)[C@@H](CC2CCCCC2)NC(=O)[C@@H]2CCCN2C1=O` [compound 8], the IC50 is 0.2 to 2 µM.
On the same count and under the same terms, for `CC(=O)N[C@@H](Cc1ccccc1)C(=O)N[C@H]1CCCNC(=O)[C@H](Cc2ccc(NC(=N)N)cc2)NC(=O)[C@H](Cc2c[nH]c3ccccc23)NC(=O)[C@@H](CC2CCCCC2)NC(=O)[C@@H]2CCCN2C1=O` [compound 9] (Ac-F[Orn]P[dCha]W[Phe(4-guanidino)]; lactam 2-C) the value was 0.2 to 2 µM; for `CC(=O)N[C@@H](Cc1ccccc1)C(=O)N[C@H]1CCCNC(=O)[C@H](CCC/N=C(/N)N[N+](=O)[O-])NC(=O)[C@H](Cc2c[nH]c3ccccc23)NC(=O)[C@@H](CC2CCCCC2)NC(=O)[C@@H]2CCCN2C1=O` [compound 11], 0.2 to 2 µM.
For `CC(=O)N[C@@H](Cc1ccccc1)C(=O)N[C@H]1CCCNC(=O)[C@H](CCCCNC(N)=O)NC(=O)[C@H](Cc2c[nH]c3ccccc23)NC(=O)[C@@H](CC2CCCCC2)NC(=O)[C@@H]2CCCN2C1=O` [compound 13] (Ac-F[Orn]P[dCha]W[hCit]; lactam 2-C), the IC50 is 0.2 to 2 µM.
The same measure, in the same setting: next, `CC(=O)N[C@@H](Cc1ccccc1)C(=O)N[C@H]1CCCNC(=O)[C@H](CSCc2ccncc2)NC(=O)[C@H](Cc2c[nH]c3ccccc23)NC(=O)[C@@H](CC2CCCCC2)NC(=O)[C@@H]2CCCN2C1=O` [compound 15] (Ac-F[Orn]P[dCha]WC(X18); lactam 2-C): 0.2 to 2 µM.
Take `CC(=O)N[C@@H](Cc1ccccc1)C(=O)N[C@H]1CCCNC(=O)[C@H](C[S+]([O-])Cc2cccnc2)NC(=O)[C@H](Cc2c[nH]c3ccccc23)NC(=O)[C@@H](CC2CCCCC2)NC(=O)[C@@H]2CCCN2C1=O` (stereo partly shown) [compound 16] (Ac-F[Orn]P[dCha]W[X6]; lactam 2-C): the IC50 was 0.2 to 2 µM.
In the case of `CC(=O)N[C@@H](Cc1ccccc1)C(=O)N[C@H]1CCCNC(=O)[C@H](CSCc2cccnc2)NC(=O)[C@H](Cc2c[nH]c3ccccc23)NC(=O)[C@@H](CC2CCCCC2)NC(=O)[C@@H]2CCCN2C1=O` [compound 17] (Ac-F[Orn]P[dCha]WC(X22); lactam 2-C), the IC50 lay in the range of 0.2 to 2 µM.
In the case of `CC(=O)N[C@@H](Cc1ccccc1)C(=O)N[C@H]1CCCNC(=O)[C@H](CSCc2ccccn2)NC(=O)[C@H](Cc2c[nH]c3ccccc23)NC(=O)[C@@H](CC2CCCCC2)NC(=O)[C@@H]2CCCN2C1=O` [compound 18] (Ac-F[Orn]P[dCha]WC(X16); lactam 2-C), the IC50 was in the range of 0.2 to 2 µM.
Same read-out and setting: for `CC(=O)N[C@@H](Cc1ccccc1)C(=O)N[C@H]1CCCNC(=O)[C@H](CSCCc2ccncc2)NC(=O)[C@H](Cc2c[nH]c3ccccc23)NC(=O)[C@@H](CC2CCCCC2)NC(=O)[C@@H]2CCCN2C1=O` [compound 19] (Ac-F[Orn]P[dCha]WC(X17); lactam 2-C) the value was 0.2 to 2 µM; for `CC(=O)N[C@@H](Cc1ccccc1)C(=O)N[C@H]1CCCNC(=O)[C@H](Cc2ccc(C(=N)N)cc2)NC(=O)[C@H](Cc2c[nH]c3ccccc23)NC(=O)[C@@H](CC2CCCCC2)NC(=O)[C@@H]2CCCN2C1=O` [compound 21] (Ac-F[Orn]P[dCha]W[Phe(4-amidino)]; lactam 2-C), 0.2 to 2 µM.
Turning to `CC(=O)N[C@@H](Cc1ccccc1)C(=O)N[C@H]1CCCNC(=O)[C@H](Cc2ccncc2)NC(=O)[C@H](Cc2c[nH]c3ccccc23)NC(=O)[C@@H](CC2CCCCC2)NC(=O)[C@@H]2CCCN2C1=O` [compound 23] (Ac-F[Orn]P[dCha]W[4Pal]; lactam 2-C), the IC50 is 0.05 to 0.2 µM.
With `CC(=O)N[C@@H](Cc1ccccc1)C(=O)N[C@H]1CCCNC(=O)[C@H](CCN)NC(=O)[C@H](Cc2c[nH]c3ccccc23)NC(=O)[C@@H](CC2CCCCC2)NC(=O)[C@@H]2CCCN2C1=O` [compound 25] (Ac-F[Orn]P[dCha]W[Dab]; lactam 2-C), the IC50 was 0.05 to 0.2 µM.
Take `COc1ccc(Cn2cnc(C[C@@H]3NC(=O)[C@H](Cc4c[nH]c5ccccc45)NC(=O)[C@@H](CC4CCCCC4)NC(=O)[C@@H]4CCCN4C(=O)[C@@H](NC(=O)[C@H](Cc4ccccc4)NC(C)=O)CCCNC3=O)c2)cc1` [compound 26] (Ac-F[Orn]P[dCha]W[X9]; lactam 2-C): the IC50 fell in the range of 0.2 to 2 µM.
For the compound `CC(=O)N[C@@H](Cc1ccccc1)C(=O)N[C@H]1CCCNC(=O)[C@H](CC2CCNCC2)NC(=O)[C@H](Cc2c[nH]c3ccccc23)NC(=O)[C@@H](CC2CCCCC2)NC(=O)[C@@H]2CCCN2C1=O` [compound 27] (Ac-F[Orn]P[dCha]W[Ala(piperidin-4-yl)]; lactam 2-C), the IC50 was greater than 2 µM.
On to `CC(=O)N[C@@H](Cc1ccccc1)C(=O)N[C@H]1CCCNC(=O)[C@H](CC2CCN(C(=N)N)CC2)NC(=O)[C@H](Cc2c[nH]c3ccccc23)NC(=O)[C@@H](CC2CCCCC2)NC(=O)[C@@H]2CCCN2C1=O` [compound 30] (Ac-F[Orn]P[dCha]W[Ala(1-amidino-4-piperidyl)]; lactam 2-C), for which the IC50 was greater than 2 µM.
Turning to `CC(=O)N[C@@H](Cc1ccccc1)C(=O)N[C@H]1CCCNC(=O)[C@H](CCCNC(=N)N)NC(=O)[C@H](Cc2c[nH]c3ccccc23)NC(=O)[C@@H](CC2CCCCC2)NC(=O)[C@H](C)N(C)C1=O` [compound 46] (Ac-F[Orn][NMeA][dCha]WR; lactam 2-C), the IC50 is 0.02 to 0.05 µM.
For `CC(=O)N[C@@H](Cc1ccccc1)C(=O)N[C@H]1CCCNC(=O)[C@H](CCCN=C(N)N)NC(=O)[C@H](C)NC(=O)[C@@H](CC2CCCCC2)NC(=O)[C@@H]2CCCN2C1=O` [compound 48] (Ac-F[Orn]P[dCha]AR; lactam 2-C), the IC50 is greater than 2 µM.
Still for that read-out and setting: next, `CC(=O)N[C@@H](Cc1ccccc1)C(=O)N[C@@H](CCCCN)C(=O)N[C@@H](C)C(=O)N[C@@H](CC1CCCCC1)C(=O)N[C@@H](C)C(=O)N[C@@H](CC(C)C)C(=O)N[C@H](C)C(=O)N[C@@H](Cc1ccc(O)cc1)C(=O)O` [compound 60] (Ac-FKA[Cha]AL[dA]Y-OH): 0.2 to 2 µM.
Regarding “Ac-Phe-[Orn-Hyp(CONHCH2COH(OH)CH2OH)-cha-Trp-Phe]”, under “functional assay of example 11, noteworthy = IC50 less than 200 nM”, the “inhibitory activity (in words)” value is on record as “noteworthy inhibitory activity”.
